Source: US10159670B2, “Methods of diagnosing and treating motor neuron diseases and other cellular stress-related diseases” (priority 2012, dated 2018)

What was measured:
NSC-34 cells = assay: Stress-induced change of pre-miRNA processing in NSC-34 cells (qPCR); format: cell-based; details: 1 hr, 0.5 mM
Procedure: (FIG. 7A) miRNA expression level analysis in the motor neuron cell line NSC-34, treated with 6.25 nM Thapsigargin for 24 hrs, relative to cells treated with carrier alone (DMSO). Shown are average and s.d. of qPCR analyses of 3 independent experiments. Pre-miRNAs (light grey, normalized to Gapdh) and miRNAs (dark grey, normalized to Snord68). (FIG. 7B) mRNA levels encoding for proteins involved in the canonical stress response, normalized to the expression of beta-actin. (FIG. 7C) miRNA expression level analysis in mouse embryonic motor neurons, treated with 5 nM Thapsigargin for 72 hrs, relative to cells treated with carrier alone (DMSO). Shown are average and s.d. of qPCR analyses of three independent experiments. Pre-miRNAs (light grey, normalized to Gapdh and beta actin) and miRNAs (dark grey, normalized to Snord70). (FIG. 7D) mRNA markers of the canonical stress response, normalized to the expression of beta-actin. miRNA expression level analysis in NSC-34 cells, treated with Paraquat (PQ) (1 mM, 12 hrs, FIG. 7E) and sodium arsenite (0.5 mM, 60 min, FIG. 7F). pre-miRNA normalized to beta-actin mRNA (FIGS. 7E-F) and miRNAs to 5S (FIG. 7E) or to U6 and 5S (FIG. 7F). (FIGS. 7G-I) miRNA expression level analysis in mouse embryonic Wild-type fibroblasts (light grey) or phospho-mutant eIF2a S51A cells (black) treated with Thapsigargin (5 nM, 72 hrs) relative to carrier alone. Pre-miRNA (FIG. 7G) and mature miRNA (FIG. 7H) levels normalized to Gapdh and Snord68, respectively. (FIG. 7I) ATF4, which is induced by phosphorylation of eIF2a, was not induced in phospho-mutant eIF2a S51A cells. Significance of p-values from ANOVA tests is indicated by *p<0.05; **p<0.01. (FIGS. 7J-K) Western-Blot analysis of lysates from untreated NSC-34 cells (control) or cells treated with sodium arsenite (0.5 mM, 60 min). Phospho-specific immunodetection of eIF2a S51 phosphorylation (peIF2a) and total eIF2a levels (FIG. 7J), Dicer and Ago2 levels (FIG. 7K). (FIG. 7L) miRNA expression level analysis in mouse embryonic fibroblasts treated with Puromycin (1 μg/ml, 24 hrs), relative to cells treated with carrier alone (water). Pre-miRNAs (light grey, normalized to Gapdh) and miRNAs (dark grey, normalized to Snord68).
RNA was extracted using Tri reagent (Molecular Research Center Inc.) or Qiazol with consecutive use of the miRNeasy Mini Kit (Qiagen). Pre-miRNA and miRNA reverse transcription was performed using miScript Kits No. I & II (Qiagen). Quantitative analysis of miRNA and pre-miRNA expression performed in more than 3 independent biological repeats and additionally in technical duplicates with StepOnePlus quantitative Real-Time PCR System and 2-sided ANOVA-test performed with DataAssist Software (Life technologies Inc.). Next-generation sequencing of mouse precursor miRNAs and mature miRNAs was performed on two independent experimental repeats, as described in Newman et al. [Newman et al. (2011) RNA 17(10): 1795-1803]. miRNAs were normalized to spiked-in controls and pre-miRNAs were normalized to Snord72 and Snord95.
Stress and cytoplasmic stress granules (SGs) emerge as major pathogenic mechanisms of ALS [Kim et al. (2014) Nat Genet 46(2): 152-160]. Stress pathways are thought to control miRNA activity [Etude and Hornstein, EMBO J. (2014) July 1; 33(13):1428-37], but the idea that cellular stress might broadly regulate miRNA biogenesis was not yet tested. This hypothesis was tested herein by measurement of the relative expression levels of mature miRNAs and their precursors, pre-miRNAs, which provides a proxy for the efficacy of Dicer complex activity. […] Two other chemicals were tested that drive oxidative stress, namely Paraquat (PQ, 12 hrs, 1 mM) and sodium arsenite (1 hr, 0.5 mM). […] Therefore, several different cellular stress pathways negatively regulate miRNA biogenesis.

eIF2a = assay: Western blot of eIF2a S51 phosphorylation in NSC-34 cells; format: cell-based; details: 0.5 mM; 1 hr
Procedure: (FIG. 7A) miRNA expression level analysis in the motor neuron cell line NSC-34, treated with 6.25 nM Thapsigargin for 24 hrs, relative to cells treated with carrier alone (DMSO). Shown are average and s.d. of qPCR analyses of 3 independent experiments. Pre-miRNAs (light grey, normalized to Gapdh) and miRNAs (dark grey, normalized to Snord68). (FIG. 7B) mRNA levels encoding for proteins involved in the canonical stress response, normalized to the expression of beta-actin. (FIG. 7C) miRNA expression level analysis in mouse embryonic motor neurons, treated with 5 nM Thapsigargin for 72 hrs, relative to cells treated with carrier alone (DMSO). Shown are average and s.d. of qPCR analyses of three independent experiments. Pre-miRNAs (light grey, normalized to Gapdh and beta actin) and miRNAs (dark grey, normalized to Snord70). (FIG. 7D) mRNA markers of the canonical stress response, normalized to the expression of beta-actin. miRNA expression level analysis in NSC-34 cells, treated with Paraquat (PQ) (1 mM, 12 hrs, FIG. 7E) and sodium arsenite (0.5 mM, 60 min, FIG. 7F). pre-miRNA normalized to beta-actin mRNA (FIGS. 7E-F) and miRNAs to 5S (FIG. 7E) or to U6 and 5S (FIG. 7F). (FIGS. 7G-I) miRNA expression level analysis in mouse embryonic Wild-type fibroblasts (light grey) or phospho-mutant eIF2a S51A cells (black) treated with Thapsigargin (5 nM, 72 hrs) relative to carrier alone. […]

How did the “mature miRNAs” value (NSC-34 cells) turn out when `O=[As]O` [sodium arsenite] was run?
Its value is “down-regulation of mature miRNAs”.

What about the pre-miRNA levels (NSC-34 cells) of the same compound?
The pre-miRNA levels was “up-regulation of pre-miRNA levels”.

What about the “phosphorylation of eIF2a” value (eIF2a) of the same compound?
Its value is “sufficient to induce the phosphorylation of eIF2a”.
